Reference: patent US12239654B2, “Compounds and methods for treating neurological and cardiovascular conditions” (Astrocyte Pharmaceuticals, Inc., priority 2016, dated 2025)
Where two headings read alike, the source gives them in different places. Marks after values point to notes of the source that are not given here.

Columns and labels:
mice subjected to stroke = assay: Photothrombosis-induced stroke in mice, TTC-stained brain infarction size; assay type: in vivo, C57Bl/6 mice; conditions: 24 hours
Method: Photothrombosis-induced Stroke: Photothrombosis was performed as described in Zheng et al 2010 (PloS One 5 (12): e14401). In brief, Rose Bengal is a fluorescent dye that when injected into the vasculature and excited, generates singlet oxygen that damages the endothelial wall and induces a local thrombosis (clot). Using this technique, mice were given a 0.1 mL tail-vein injection of sterilized Rose Bengal (RB, Sigma, U.S.A.) in artificial cerebral spinal fluid (aCSF). The RB concentration was 20 mg/mL. A cortical region was centered in the imaging field and illuminated with a green laser (543 nm, 5 mW) using a 0.8-NA 40× water-immersion objective (Nikon, Tokyo). The clot formation was monitored in real time until the targeted vessel or downstream capillaries were firmly occluded. Stable clots were subsequently identified by a non-fluorescent vessel segmentation ending with highly fluorescent regions. […] Treatments, MRS4322 (0.16 mg/kg; 0.5 μmol/kg) or MRS2365 (0.24 mg/kg; 0.5 μmol/kg) were introduced via intraperitoneal injections (i.p.). For experiments with A3 receptor antagonist MRS1523, mice were administered intraperitoneal injections (2 mg/kg) at the 0 and 2 hour timepoints to ensure receptor antagonism throughout the course of the study.
Animals and Photothrombosis-induced Stroke: Stroke was performed as described in Zheng et al 2010 (PloS One 5 (12): e14401). Female C57Bl/6 mice (4-6 months) were used in this study. From the methods of this manuscript: Mice were anesthetized at 3% isoflurane with 100% oxygen and subsequently maintained at 1% isoflurane through a nosecone. Depth of anesthesia was monitored and regulated according to vital signs, pinch withdrawal and eye blinks. Body temperature was maintained at 37° C. by a feedback-controlled heating pad (Gaymar T/Pump). Vital signs including oxygen saturation, respiratory rate, and heart rate were continuously monitored by using the MouseOx system (STARR Life Sciences). The hair on each mouse's head was trimmed and a small incision was made in the scalp to expose the skull. A custom-made stainless steel plate was glued to the skull with VetBond Tissue Adhesive (3M, St Paul, MN). A cranial thinned-skull imaging window was created over the right primary somatosensory cortex (˜1.5 mm posterior to Bregma and 2 mm lateral from midline) depending on the experiment. In brief, a large region of the skull was first thinned with the electric drill and then further thinned with a surgical blade. The final thickness of the thinned skull was approximately 50 μm. After the cranial imaging window was created, mice were transferred to microscope stage and used for photothrombosis or imaging experiments. For the repeat imaging experiments, the plate was carefully detached from the skull and the scalp was sutured (Ethicon 6-0 sild suture). After each experiment, the mice were either returned to cages until the next timepoint or sacrificed. All procedures were approved by the Institutional Animal Care and Use Committee (IACUC) at University of Texas Health Science Center at San Antonio. Thirty minutes following stroke or sham (uninjured), mice were treated with either vehicle (saline) or drugs (MRS4322, MRS2365, MRS5698 or Cl-IBMECA).
Post photothrombotic infarction evaluation. The size of cerebral infarcts was evaluated using 2,3,5-Triphenyltetrazolium chloride (TTC) staining as described in Zheng et al 2010 (PloS One 5 (12): e14401). In brief, RB-induced lesions in brain slices were stained with TTC. TTC is a colorless dye that stains healthy brain tissue red when reduced by the mitochondrial enzyme succinyl dehydrogenase (Bederson J B et al., 1986). The absence of staining in necrotic tissue is then used to define the area of a brain infarction. Mice were sacrificed by cervical dislocation, their brains removed and then placed in ice cold HBSS for 3 minutes. The brain was subsequently transferred to a brain mold (KOPF), sliced into 1 mm sections and immersed in 2% TTC (5 min) at 37° C. […]

[1] = Plasma binding determination by plasma ultrafiltration, mouse; assay type: in vitro ADME; conditions: mouse plasma, 1 μM
Method: (§1) Animals and Tissue Preparation: Plasma from male CD-1 mice was obtained from BioreclamationIVT (Westbury, NY) and stored at −80° C. until use. Male CD-1 mouse brains were obtained from BioreclamationIVT (Westbury, NY).
Plasma ultrafiltrate blank samples were prepared by thawing frozen plasma and then pre-warming plasma in a humidified 5% CO2 chamber at 37° C. for 60 minutes. Aliquots of 800 μL were transferred to Centrifree Centrifugal Filters (Ultracel regenerated cellulose (NMWL 30,000 amu) Lot R5JA31736) and centrifuged at 2900 RPM at 37° C. for 10 minutes; plasma water filtrates were collected and used in preparation of standards, blanks and QC standards.
Plasma samples were pre-warmed for 60 minutes in a humidified, 5% CO2 incubator maintained at 37° C. […] Spiked plasma samples were incubated on a rotary mixer in a humidified 5% CO2 chamber at 37° C. for a minimum of 60 minutes. After 60 minutes, three 800 μL aliquots of each sample were added to Centrifree centrifugal filters. The filters were subjected to centrifugation at 2900 rpm for 10 minutes at 37° C. Three 100 μL aliquots of residual plasma were collected along with ultrafiltrate for bioanalysis.
(§2) Plasma and brain concentrations of MRS4322 and MRS5698 in spiked plasma, brain homogenates and associated ultrafiltrates were determined by LC-MS/MS utilizing tolbutamide as an internal standard. […] The following tables outline the LC and MS/MS conditions employed (Tables 7 and 8).
(§3) For each tissue matrix, standard curves were created and LLOQ/ULOQ concentrations determined. The calibration range for the MRS4322 and MRS5698 plasma concentration standard curves was 400-1200 nM. The calibration range for MRS4322 and MRS5698 plasma ultrafiltrate standard curves was 100-1200 nM. The calibration range for MRS4322 brain homogenate and brain homogenate ultrafiltrate standard curves were 400-1200 nM and 100-1200 nM, respectively. The calibration range for MRS5698 brain homogenate and brain homogenate ultrafiltrate standard curves were 400-1200 nM and 1-500 nM, respectively.

[2] = Brain binding determination by brain homogenate ultrafiltration, mouse; assay type: in vitro ADME; conditions: for fraction unbound at 60 min, 1 μM: male, CD-1, mouse, brain homogenate, pH 7.4, mouse brain homogenate
Method: as §1
Brains were weighed and homogenized with 1:9 phosphate-buffered saline, pH 7.4 using an Omni tissue homogenizer. Brains from four mice were homogenized, pooled and mixed to form one sample.
Pooled homogenized brains were pre-warmed for 60 minutes in a humidified, 5% CO2 incubator maintained at 37° C. […] Spiked pooled brain homogenates were placed on a Nutator mixer in a humidified, 5% CO2 incubator at 37° C. for 60 minutes. After 60 minutes, three 800 μL aliquots of each sample were added to Centrifree centrifugal filters. The filters were subjected to centrifugation at 2900 rpm for 10 minutes at 37° C. Aliquots of residual brain homogenate and ultrafiltrate were collected for bioanalysis.
as §2, §3

Structure (SMILES) | size of the brain infarction (TTC staining) (mice subjected to stroke; photothrombotic stroke mice, 100 ul of 100 uM ip within 30 minutes of clot formation, vs vehicle) | concentrations in the plasma ultrafiltrate [1] | fraction unbound at 60 min, 1 μM ([2]; 37° C., ultrafiltration, read-out: % Bound Mean (converted)) | fraction unbound at 60 min, 1 μM ([2]; 37° C., ultrafiltration, read-out: Fraction Unbound Mean) | concentrations in the brain homogenate ultrafiltrate ([2]; mouse brain homogenate, 1 μM) | % Bound Mean ([2]; mouse brain homogenate, 1 μM, 37° C., ultrafiltration) | size of brain infarctions in mice pretreated with A3 receptor antagonist MRS1523 (mice subjected to stroke; MRS1523 2 mg/kg ip at 0 and 2 hour, treatment within 30 minutes of clot formation)
Nc1nc(Cl)nc2c1ncn2[C@H]1[C@H](O)[C@H](O)[C@]2(CO)C[C@H]12 [MRS1873] | significantly reduced | – | – | – | – | – | –
CNC(=O)[C@@]12C[C@@H]1[C@@H](n1cnc3c(NCc4cccc(Cl)c4)nc(C#Cc4ccc(F)c(F)c4)nc31)[C@H](O)[C@@H]2O [MRS5698] | – | not detected | 0.0001 | < 0.000122 | not detected | >99.99* % | not reduced
